How the values were obtained:
N-type Ca^2+ Channel = molecular target: T1, N-type Ca^2+ Channel (Homo sapiens, UniProt Q00975); test: Measurement of N-type Ca2+ channel blocking potencies in IMR-32 cells using the fluorescent Ca2+ indicator Indo-1; format: cell-based; conditions: IMR-32 cells, K+ depolarization, 5 μM nitrendipine to block L-type channels; read-out: IMR 32 IC50
T1 construct: host or cells: IMR-32 cells differentiated with dibutyryl cAMP and bromodeoxyuridine
Outline: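 IMR-32 cells were differentiated 7–13 days (1 mM dibutyryl cAMP, 2.5 µM BrdU) and Indo-1-loaded. They were preincubated 10 min at 30 °C with compound and 5 µM nitrendipine in HEPES/Tris pH 7.4 HBSS with 0.5% BSA, then KCl/CaCl2-depolarized. The peak-minus-basal 400/490 nm emission ratio gave IC50 by four-parameter logistic fit.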

DBA/2 mice = test: In vivo anticonvulsant activity, sound-induced tonic seizures in DBA/2 mice; conditions: tested 15 or 45 minutes after injection; for DBA/2 mice % Protection dose @ 30 mg/kg: 30 mg/kg intravenous; for DBA/2 mice % Protection (10 mg/kg): 10 mg/kg intravenous
Description: A compound of the present invention was dissolved in water using 10% (weight/volume) Emulphor (GAF Corp., Wayne, N.J.) surfactant. Substances were administered by intravenous injection into the retro-orbital venous sinus. All testing was performed 15 minutes or 45 minutes after drug injection. All the male mice, 3-4 weeks old were obtained from Jackson Laboratories Bar Harbour, Me. Immediately before anticonvulsant testing, mice were placed upon a wire mesh, 4 inches square suspended from a steel rod. The square was slowly inverted through 180 degrees and mice observed for 30 seconds. Any mouse falling from the wire mesh was scored as ataxia.
Mice were placed into an enclosed acrylic plastic chamber (21 cm height, approximately 30 cm diameter) with a high-frequency speaker (4 cm diameter) in the center of the top lid. An audio signal generator (Protek model B-810) was used to produce a continuous sinusoidal tone that was swept linearly in frequency between 8 kHz and 16 kHz once each 10 msec. The average sound pressure level (SPL) during stimulation was approximately 100 dB at the floor of the chamber. Mice were placed within the chamber and allowed to acclimatize for 1 minute. DBA/2 mice in the vehicle-treated group responded to the sound stimulus (applied until tonic extension occurred, or for a maximum of 60 sec) with a characteristic seizure sequence consisting of wild running followed by clonic seizures, and later by tonic extension, and finally by respiratory arrest and death in 80% or more of the mice. In vehicle-treated mice, the entire sequence of seizures to respiratory arrest lasts approximately 15-20 seconds.
The incidence of all the seizure phases in the drug-treated and vehicle-treated mice was recorded, and the occurrence of tonic seizures were used for calculatine anticonvulsant ED50 values by probit analysis. Mice were used only once for testing at each time and dose point.

T1 sequence (Q00975 whole entry): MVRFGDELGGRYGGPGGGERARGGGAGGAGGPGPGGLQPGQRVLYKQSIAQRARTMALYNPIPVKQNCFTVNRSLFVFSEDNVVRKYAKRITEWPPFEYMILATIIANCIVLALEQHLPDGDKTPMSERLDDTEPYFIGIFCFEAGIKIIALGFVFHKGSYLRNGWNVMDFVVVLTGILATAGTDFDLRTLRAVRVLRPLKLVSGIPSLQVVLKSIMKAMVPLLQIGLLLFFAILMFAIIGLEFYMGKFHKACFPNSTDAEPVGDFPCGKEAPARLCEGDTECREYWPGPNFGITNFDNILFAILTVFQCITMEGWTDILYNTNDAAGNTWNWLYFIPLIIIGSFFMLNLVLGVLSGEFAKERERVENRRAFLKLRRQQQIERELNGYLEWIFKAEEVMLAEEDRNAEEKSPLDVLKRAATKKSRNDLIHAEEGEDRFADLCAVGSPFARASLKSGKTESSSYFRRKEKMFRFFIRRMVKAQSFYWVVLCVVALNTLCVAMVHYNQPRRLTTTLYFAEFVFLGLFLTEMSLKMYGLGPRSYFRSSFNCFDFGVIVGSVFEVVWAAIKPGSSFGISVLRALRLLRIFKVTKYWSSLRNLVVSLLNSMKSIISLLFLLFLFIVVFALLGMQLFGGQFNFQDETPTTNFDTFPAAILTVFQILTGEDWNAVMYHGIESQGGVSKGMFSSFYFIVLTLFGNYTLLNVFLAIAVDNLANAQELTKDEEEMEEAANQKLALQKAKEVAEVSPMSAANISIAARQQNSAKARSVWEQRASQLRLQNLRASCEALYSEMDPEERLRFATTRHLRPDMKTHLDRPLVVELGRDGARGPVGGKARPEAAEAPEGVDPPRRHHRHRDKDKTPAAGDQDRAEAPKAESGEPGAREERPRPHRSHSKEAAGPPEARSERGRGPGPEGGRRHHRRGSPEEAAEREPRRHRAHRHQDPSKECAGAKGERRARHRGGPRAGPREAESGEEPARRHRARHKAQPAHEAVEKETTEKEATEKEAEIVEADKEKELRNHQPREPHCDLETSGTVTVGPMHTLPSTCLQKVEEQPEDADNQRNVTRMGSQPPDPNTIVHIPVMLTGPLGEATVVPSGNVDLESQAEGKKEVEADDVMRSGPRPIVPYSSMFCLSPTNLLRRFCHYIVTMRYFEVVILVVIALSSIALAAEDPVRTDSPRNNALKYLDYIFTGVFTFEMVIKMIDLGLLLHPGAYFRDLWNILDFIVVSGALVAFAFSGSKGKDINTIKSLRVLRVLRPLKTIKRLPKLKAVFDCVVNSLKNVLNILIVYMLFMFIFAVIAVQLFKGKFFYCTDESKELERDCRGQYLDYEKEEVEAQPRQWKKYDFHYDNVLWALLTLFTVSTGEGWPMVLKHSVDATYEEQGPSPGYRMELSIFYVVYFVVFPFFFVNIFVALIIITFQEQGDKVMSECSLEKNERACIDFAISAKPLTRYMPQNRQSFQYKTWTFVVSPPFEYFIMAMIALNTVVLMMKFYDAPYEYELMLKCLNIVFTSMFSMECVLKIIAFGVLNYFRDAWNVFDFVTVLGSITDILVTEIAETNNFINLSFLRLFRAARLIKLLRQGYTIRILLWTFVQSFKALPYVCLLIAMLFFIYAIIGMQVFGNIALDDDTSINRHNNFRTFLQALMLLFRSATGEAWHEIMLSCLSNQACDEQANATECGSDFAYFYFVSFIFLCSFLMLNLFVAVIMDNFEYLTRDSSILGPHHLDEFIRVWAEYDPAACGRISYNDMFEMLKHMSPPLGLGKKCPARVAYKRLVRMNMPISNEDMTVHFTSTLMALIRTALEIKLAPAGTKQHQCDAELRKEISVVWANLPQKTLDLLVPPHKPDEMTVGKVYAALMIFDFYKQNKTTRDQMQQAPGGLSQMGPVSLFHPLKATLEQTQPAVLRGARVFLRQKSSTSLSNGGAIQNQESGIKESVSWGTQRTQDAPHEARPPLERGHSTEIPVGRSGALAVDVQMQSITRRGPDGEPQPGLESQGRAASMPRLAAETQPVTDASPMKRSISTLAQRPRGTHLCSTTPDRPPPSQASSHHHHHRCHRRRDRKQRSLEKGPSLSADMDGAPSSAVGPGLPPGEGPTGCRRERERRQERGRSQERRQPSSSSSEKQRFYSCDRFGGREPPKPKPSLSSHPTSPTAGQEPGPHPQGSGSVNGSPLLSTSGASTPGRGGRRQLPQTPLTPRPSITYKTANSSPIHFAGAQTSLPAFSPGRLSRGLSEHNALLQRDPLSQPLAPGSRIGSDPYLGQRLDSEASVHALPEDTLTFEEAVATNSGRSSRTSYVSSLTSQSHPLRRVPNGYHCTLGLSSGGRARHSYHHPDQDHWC
T1 sequence (P54284 whole entry partner): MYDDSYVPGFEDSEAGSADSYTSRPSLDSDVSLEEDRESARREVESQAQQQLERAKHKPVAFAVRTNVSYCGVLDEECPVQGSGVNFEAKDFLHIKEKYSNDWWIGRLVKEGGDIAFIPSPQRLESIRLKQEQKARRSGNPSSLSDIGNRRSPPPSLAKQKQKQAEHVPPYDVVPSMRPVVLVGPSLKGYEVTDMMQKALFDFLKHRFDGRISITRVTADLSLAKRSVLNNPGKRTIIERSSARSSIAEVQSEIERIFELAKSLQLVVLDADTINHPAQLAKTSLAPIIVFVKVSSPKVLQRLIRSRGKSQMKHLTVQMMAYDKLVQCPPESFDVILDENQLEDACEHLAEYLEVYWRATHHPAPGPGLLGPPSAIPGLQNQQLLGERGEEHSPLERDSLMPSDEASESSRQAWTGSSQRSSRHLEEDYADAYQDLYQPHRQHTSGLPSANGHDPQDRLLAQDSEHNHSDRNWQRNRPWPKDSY
T1 sequence (P54289 25-946 partner limits assumed): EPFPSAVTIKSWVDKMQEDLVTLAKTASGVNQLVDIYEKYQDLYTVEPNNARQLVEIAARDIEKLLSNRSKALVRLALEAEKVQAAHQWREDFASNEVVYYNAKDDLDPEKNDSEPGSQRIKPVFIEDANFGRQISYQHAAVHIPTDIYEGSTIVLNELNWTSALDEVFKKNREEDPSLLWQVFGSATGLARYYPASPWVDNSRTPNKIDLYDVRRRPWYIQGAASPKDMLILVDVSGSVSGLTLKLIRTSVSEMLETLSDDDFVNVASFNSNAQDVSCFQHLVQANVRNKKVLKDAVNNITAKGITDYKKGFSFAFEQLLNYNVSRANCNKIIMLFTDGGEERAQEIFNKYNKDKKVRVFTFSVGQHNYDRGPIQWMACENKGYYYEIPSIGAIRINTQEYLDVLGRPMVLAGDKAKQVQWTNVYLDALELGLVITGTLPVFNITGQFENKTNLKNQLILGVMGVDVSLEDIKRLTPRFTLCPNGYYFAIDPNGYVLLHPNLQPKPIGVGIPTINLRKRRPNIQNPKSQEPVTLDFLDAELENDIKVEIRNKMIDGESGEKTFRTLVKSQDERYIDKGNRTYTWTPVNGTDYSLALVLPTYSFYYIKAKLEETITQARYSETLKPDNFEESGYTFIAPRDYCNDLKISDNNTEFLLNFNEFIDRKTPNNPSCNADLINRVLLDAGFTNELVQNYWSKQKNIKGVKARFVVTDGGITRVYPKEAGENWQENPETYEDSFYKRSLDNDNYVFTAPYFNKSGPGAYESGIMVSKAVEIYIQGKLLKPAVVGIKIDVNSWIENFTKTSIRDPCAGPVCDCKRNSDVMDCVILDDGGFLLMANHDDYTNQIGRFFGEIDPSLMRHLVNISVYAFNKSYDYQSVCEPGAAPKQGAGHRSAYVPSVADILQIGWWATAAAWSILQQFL
T1 sequence (P54289 947-1103 partner limits assumed): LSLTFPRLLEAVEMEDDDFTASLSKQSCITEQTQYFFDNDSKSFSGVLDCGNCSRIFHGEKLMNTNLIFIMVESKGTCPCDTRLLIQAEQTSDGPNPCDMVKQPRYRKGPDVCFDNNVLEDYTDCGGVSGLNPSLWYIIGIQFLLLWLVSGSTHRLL

IC50 (N-type Ca^2+ Channel) [nM] | Compound | DBA/2 mice % Protection dose @ 30 mg/kg (DBA/2 mice) [%] | DBA/2 mice % Protection (10 mg/kg) (DBA/2 mice) [%]
320 | CC(C)=CCNC(CC(C)C)C(=O)NC(Cc1ccc(OCc2ccccc2)cc1)C(=O)OC(C)(C)C (stereo not drawn) [Example 31, [S-(R*,R*)]-3-(4-Benzyloxy-phenyl)-2-[4-methyl-2-(3-methyl-but-2-enylamino)-pentanoylamino]-propionic acid tert-butyl ester] | 100 | –
370 | CC(C)CCN(C)[C@@H](CC(C)C)C(=O)N[C@H](Cc1ccc(OCc2ccccc2)cc1)C(=O)NC(C)(C)C (relative stereo) [Example 84, [S-(R*,S*)]-4-Methyl-2-[methyl-(3-methyl-butyl)-amino]-pentanoic acid [2-(4-benzyloxy-phenyl)-1-tert-butylcarbamoyl-ethyl]-amide] | – | 100
200 | CC(C)C[C@H](NC1CCCCC1)C(=O)N[C@@H](Cc1ccc(OCc2ccccc2)cc1)C(=O)OC(C)(C)C (relative stereo) [Example 93, [S-(R*,R*)]-3-(4-Benzyloxy-phenyl)-2-(2-cyclohexylamino-4-methyl-pentanoylamino)-propionic acid tert-butyl ester] | 80 | –
280 | CC(C)CC(C(=O)NC(Cc1ccc(OCc2ccccc2)cc1)C(=O)NC(C)(C)C)N(C)C1C=CCCC1 (stereo not drawn) [Example 47, [S-(R*,R*)]-2-(Cyclohex-2-enyl-methyl-amino)-4-methyl-pentanoic acid [2-(4-benzyloxy-phenyl)-1-tert-butylcarbamoyl-ethyl]-amide] | 100 | –
40 | CC(C)CC(C(=O)NC(Cc1ccc(OCc2ccccc2)cc1)C(=O)NC(C)(C)C)N(C)Cc1ccc(C(C)(C)C)cc1 (stereo not drawn) [Example 13, [S-(R*,R*)]-2-[(4-tert-Butyl-benzyl)-methyl-amino]-4-methyl-pentanoic acid [2-(4-benzyloxy-phenyl)-1-tert-butylcarbamoyl-ethyl]-amide] | 60 | –
320 | CC(C)CCN(C)[C@@H](CC(C)C)C(=O)N[C@@H](Cc1ccc(OCc2ccccc2)cc1)C(=O)NC(C)(C)C (relative stereo) [Example 7, [S-(R*,R*)]-4-Methyl-2-[methyl-(3-methyl-butyl)-amino]-pentanoic acid [2-(4-benzyloxy-phenyl)-1-tert-butylcarbamoyl-ethyl]-amide] | 100 | –
800 | CC(C)CC(NC(C)C)C(=O)NC(Cc1ccc(OCc2ccccc2)cc1)C(=O)OC(C)(C)C (stereo not drawn) [Example 92, [S-(R*,R*)]-3-(4-Benzyloxy-phenyl)-2-(2-isopropylamino4-methyl-pentanoylamino)-propionic acid tert-butyl ester] | 100 | –
1500 | CCC(C)N(C)C(CC(C)C)C(=O)NC(Cc1ccc(OCc2ccccc2)cc1)C(=O)NC(C)(C)C (racemic) [Example 103, [S-[R*,R*,(RS)]]-2-(sec-Butyl-methyl-amino)-4-methyl-pentanoic acid [2-(4-benzyloxy-phenyl)-1-tert-butylcarbamoyl-ethyl]-amide] | – | 100
2200 | CC(C)C[C@@H](C(=O)N[C@@H](Cc1ccc(OCc2ccccc2)cc1)C(=O)NC(C)(C)C)N(C)CCC(C)O (relative stereo) [Example 97, [S-(R*,R*)]-2-[(3-Hydroxy-butyl)-methyl-amino]-4-methyl-pentanoic acid [2-(4-benzyloxy-phenyl)-1-tert-butylcarbamoyl-ethyl]-amide] | 40 | –
